PubChem BioAssay (NCI)
“And” between values parts separate entries of the source, which are not always exact repeats. Equal entries are not always repeated.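 How tested: cells in 96-well plates exposed to compound for 48 hours at five concentrations. GI50: concentration for 50% inhibition of growth. TGI: total growth inhibition.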

Experiments:
Experiment in all cases: NCI-60 cell line screen, 48 h
RXF 393 renal = test system: RXF 393 renal
KM12 colon = test system: KM12 colon
U251 CNS = test system: U251 CNS
SF-295 CNS = test system: SF-295 CNS
HCC-2998 colon = test system: HCC-2998 colon
SK-OV-3 ovarian = test system: SK-OV-3 ovarian
HOP-18 NSCLC = test system: HOP-18 NSCLC
LXFL 529 NSCLC = test system: LXFL 529 NSCLC
HOP-92 NSCLC = test system: HOP-92 NSCLC
UACC-62 melanoma = test system: UACC-62 melanoma
MDA-MB-435 = test system: MDA-MB-435

| SMILES | TGI (RXF 393 renal) [µM] | TGI (KM12 colon) [µM] | TGI (U251 CNS) [µM] | TGI (SF-295 CNS) | TGI (HCC-2998 colon) | TGI (SK-OV-3 ovarian) [µM] | TGI (HOP-18 NSCLC) [µM] | TGI (LXFL 529 NSCLC) [µM] | TGI (HOP-92 NSCLC) [µM] | GI50 (SF-295 CNS) | GI50 (UACC-62 melanoma) | TGI (UACC-62 melanoma) [µM] | TGI (MDA-MB-435) [µM] | GI50 (RXF 393 renal) [µM] | GI50 (KM12 colon) [µM] | GI50 (U251 CNS) [µM] | GI50 (HCC-2998 colon) [µM] | GI50 (SK-OV-3 ovarian) [µM] | GI50 (MDA-MB-435) [µM] | GI50 (HOP-92 NSCLC) [µM] |
| --- | --- | --- | --- | --- | --- | --- | --- | --- | --- | --- | --- | --- | --- | --- | --- | --- | --- | --- | --- | --- |
| CC12CCC3C(CCC4CC(OC(=O)Cc5ccc(N(CCCl)CCCl)cc5)CCC43C)C1CCC(=O)N2 (centres undefined) | 28 | 32.1 | 28.4 | 30.3 µM | 41.6 µM | 32.5 | 31.2 | 30 | 30.9 |  |  |  |  |  |  |  |  |  |  |  |
| Cn1ccnc1C(O)(c1nccn1C)c1nccn1C | > 100 | > 100 | > 100 | > 100 µM | > 100 µM |  | > 100 | > 100 | > 100 |  |  |  |  |  |  |  |  |  |  |  |
| COc1c(O)c2c3c(c(C)cc(O)c3c1O)C(=O)C(O)(C(C)(C)C(C)=O)C2=O (centres undefined) | > 100 | > 100 | > 100 | 71.2 µM and > 100 µM |  | > 100 | > 100 | > 100 | > 100 | 25.2 µM and > 100 µM | 39.9 µM and > 100 µM | > 100 |  |  |  |  |  |  |  |  |
| CCN1CCCC(NCc2c3ccccc3c(CNC3CCCN(CC)C3)c3ccccc23)C1 (centres undefined) | 11.8 | 31.9 | 45.3 | 14.7 µM | 27.9 µM | 36.7 | > 46.6 |  | 38.6 |  |  | 26.8 |  |  |  |  |  |  |  |  |
| Nc1nc(N)c(N=O)c(Nc2ccc(Br)cc2)n1 |  | > 100 | 59 | > 100 µM | > 100 µM | > 100 | > 100 | > 100 | > 100 |  |  | 19.4 |  |  |  |  |  |  |  |  |
| CCC1=NC(C(F)(F)F)(C(F)(F)F)N=C(N2CCOCC2)O1 | > 100 | > 100 | > 100 | > 100 µM | > 100 µM | > 100 |  |  | > 100 |  |  | > 100 | > 100 |  |  |  |  |  |  |  |
| COC(=O)CN1c2nc(C#N)c(C#N)nc2N(CC(=O)OC)c2nc(C#N)c(C#N)nc21 | 7.09 | 27.8 | > 57.1 | 43.5 µM | > 49.7 µM | 35.2 |  |  | 7.44 |  |  | 42.4 | > 100 |  |  |  |  |  |  |  |
| N#CC(N=Nc1ccc(Cl)cc1)c1nc2ccccc2o1 (centres undefined) | > 100 | > 100 | > 100 | 67.9 µM | > 100 µM | > 100 |  |  | 70.4 |  |  | > 100 | > 100 |  |  |  |  |  |  |  |
| Cc1cn(-c2cc(C(=O)Nc3cccc(-n4ccc5c(NC(=O)c6ccccc6)nccc54)c3)cc(C(F)(F)F)c2)cn1 | 0.535 | 1.46 | 1.48 | 1.44 µM | 4.79 µM | 3.53 |  |  | 6.49 | 0.306 µM | 0.366 µM | 12.7 | 0.635 | 0.202 | 0.372 | 0.29 | 0.862 | 0.325 | 0.217 | 0.39 |
| CC(C(=O)N1C(=O)N(C(=O)C(C)C(O)c2ccccc2)C2CCCCC21)C(O)c1ccccc1 (centres undefined) | > 100 | > 100 | > 100 | > 100 µM |  |  |  | > 100 |  |  |  | > 100 |  |  |  |  |  |  |  |  |
| Cc1ccc([N+](=O)[O-])cc1N=NC(=O)NNc1cc([N+](=O)[O-])ccc1C | 66.6 | 49.3 | 97.6 | 40.9 µM | 58 µM | 36 |  |  | > 100 |  |  | 33.2 | 53 |  |  |  |  |  |  |  |
| COc1cc2c(cc1OC)[C@H]1CN3CCC[C@H]3C=C1c1ccc(OC)c(O)c1-2 | 0.0437 | 0.00183 | 1.25 | 0.00039 µM | 0.0149 µM and 0.0736 µM | 0.000342 | 0.000181 |  | 0.000382 |  |  | 0.000267 | 0.0269 |  |  |  |  |  |  |  |
| C[C@@H](Cl)[C@H]1CCCN(Cc2ccc(Br)cc2)C1 | > 12.5 | > 12.5 | > 12.5 | > 12.5 µM | > 12.5 µM | > 12.5 |  |  | > 12.5 |  |  | > 12.5 | > 12.5 |  |  |  |  |  |  |  |
| COC(=O)CCc1cc(OC)c2c(c1)[C@H](C(=O)OC)[C@@H](c1ccc(O)c(OC)c1)O2 | > 100 | > 100 | > 100 | > 100 µM | 50.5 µM | > 100 |  |  | > 100 |  |  | > 100 | 39.5 |  |  |  |  |  |  |  |
| Nc1nc(Cl)cc(NCC2(CO)CCC(CCc3ccccc3)C2)n1 (centres undefined) | 29.9 | 30.1 | 31.1 | 21.8 µM | 33.8 µM | 35.1 |  |  | 33.4 |  |  | 28.3 | 28.3 |  |  |  |  |  |  |  |
| C=CCNC(=S)N=Nc1c(O)[nH]c2ccc([N+](=O)[O-])cc12 | 73.3 | > 100 | > 100 | > 100 µM | > 100 µM | > 100 |  |  | > 100 |  |  | > 100 | > 100 |  |  |  |  |  |  |  |
| COC(C)(C)[C@@H](O)[C@H]1C[C@H](C)[C@@]2(CC[C@]3(C)[C@@H]2CC[C@@H]2[C@@]4(C)CC[C@@H](OC(C)=O)C(C)(C)[C@@H]4C[C@@H](OC4OC(COC(C)=O)C(O)C(O)C4O)[C@]23C)O1 (some centres undefined) | 11.8 | 3.62 | 18.5 | 16.5 µM | 2.92 µM | 15.1 |  |  | 17.6 |  |  | 18.6 | 12.3 |  |  |  |  |  |  |  |
| CC(=O)Oc1cc(C(F)(F)F)ccc1C(=O)OC1(C)OC(=O)c2ccc(C(F)(F)F)cc2O1 (centres undefined) | > 100 | > 100 | > 100 | > 100 µM | > 100 µM | > 100 |  |  | > 100 |  |  | > 100 | > 100 |  |  |  |  |  |  |  |
| CC(C)=CCC/C(C)=C/COC(C)(C)C1=CCC(C)CC1 (centres undefined) (tested in a mixture with another compound) | > 100 | > 100 | > 100 | > 100 µM | > 100 µM | > 100 |  |  | > 100 |  |  | > 100 | > 100 |  |  |  |  |  |  |  |
| C=Cc1ccc(C)[n+](C[Si](C)(C)O[Si](C)(C)C[n+]2cc(C=C)ccc2C)c1 | > 100 | > 100 | > 100 | > 100 µM | > 100 µM | > 100 | > 100 | > 100 | > 100 |  |  | > 100 |  |  |  |  |  |  |  |  |
| CCC1=CC2CN3Cn4c(c(COCc5c6n(c7ccccc57)CN5CC7C=C(CC)C5C6(C(=O)OC)C7)c5ccccc54)C(C(=O)OC)(C2)C13 | > 100 | > 100 | > 100 | > 100 µM |  | > 100 |  | > 100 |  |  |  | > 100 |  |  |  |  |  |  |  |  |
| Cc1cc(-c2nc3ccccc3s2)ccc1NC(=O)[C@@H](N)CCCCN | 16.5 | 8.03 | 9.88 | 10.6 µM | 24.5 µM | 27.2 |  |  | 33.3 |  |  | 29.2 | 10 |  |  |  |  |  |  |  |
| CC1=C2C(=C[C@H]3[C@]4(C)CCCC(C)(C)[C@H]4CC[C@]34O[C@H]24)OC1=O | > 100 | > 100 | > 100 | > 100 µM | > 100 µM | > 100 |  |  | > 100 |  |  | > 100 | > 100 |  |  |  |  |  |  |  |
